Results as given in PMC5974779, “Prediction of Drug-Induced Hepatotoxicity Using Long-Term Stable Primary Hepatic 3D Spheroid Cultures in Chemically Defined Conditions” (Toxicological Sciences, 2018).
Like-named read-outs stand apart in the source and are kept apart here.

Tests used:
clinical DILI in man = details: cited from earlier work
[1] = cited from earlier work
[2] = ref DrugBank and Prescribers' Digital Reference database; cited from earlier work
[3] = system: PHH spheroids (hanging-drop); details: cited from earlier work
[4] = system: primary human hepatocytes (PHH) 3D spheroids; experiment: CD-spheroid hepatotoxicity: ATP viability (CellTiter-Glo) of PHH 3D spheroids after 14 days repeated exposure at 1×, 5×, 20× cmax
[5] = system: primary human hepatocytes (PHH) 3D spheroids
in vitro = details: human
PHH 2D sandwich cultures = details: cited from earlier work
[6] = system: Wistar rat primary hepatocyte 3D spheroids; experiment: Animal hepatocyte spheroid hepatotoxicity (ATP viability, 14 days), Wistar rat; format: cell-based; details: Wistar rat hepatocyte spheroids, 1×, 5×, 20× human cmax, 14 days
[7] = system: CD1 mouse primary hepatocyte 3D spheroids; experiment: Animal hepatocyte spheroid hepatotoxicity (ATP viability, 14 days), CD1 mouse; format: cell-based; details: CD1 mouse hepatocyte spheroids, 1×, 5×, 20× human cmax, 14 days
[8] = system: rhesus monkey primary hepatocyte 3D spheroids; experiment: Animal hepatocyte spheroid hepatotoxicity (ATP viability, 14 days), rhesus monkey; format: cell-based; details: rhesus monkey hepatocyte spheroids, 1×, 5×, 20× human cmax, 14 days
[9] = FDA drug labeling DILI concern, ref Chen et al., 2011
[10] = FDA drug labeling DILI score, ref Chen et al., 2011
[11] = clinical DILI classification in man (POS/NEG)
[12] = clinical DILI classification used in this study, Supplementary Table 2, ref Chen et al., 2011, Guo et al., 2005, O'Brien et al., 2006, Sakatis et al., 2012, Suzuki et al., 2010, Xu et al., 2008
[13] = clinical DILI classification, Supplementary Table 1, ref Chen et al., 2011, Guo et al., 2005, O'Brien et al., 2006, Sakatis et al., 2012, Suzuki et al., 2010, Xu et al., 2008
[14] = reported pattern of liver damage, Supplementary Table 2, ref literature
[15] = therapeutic total cmax, ref PMID
[16] = PHH hanging-drop spheroids, 100x Cmax, ref Proctor 2017
[17] = PHH spheroids in chemically defined conditions, 20x Cmax
[18] = PHH 2D sandwich cultures, 100x Cmax, ref Xu 2008
[19] = clinical DILI classification, ref Xu et al. (2008)
[20] = DILI classification score, ref Guo et al. (2005)

COC(c1ccccc1)(c1ccccc1)[C@H](Oc1nc(C)cc(C)n1)C(=O)O [Ambrisentan]
FDA (Severity) (clinical DILI in man; [9]): less DILI concern | FDA (0-8) (clinical DILI in man; [10]): 7 | DILI in vivo (clinical DILI in man; [11]): NEG | Classified as (clinical DILI in man; [12]): NEG | DILI in vivo (clinical DILI in man; [13]): NEG | Type of DILI (clinical DILI in man; [14]): Non-hepatotoxic | Clinical DILI classification (Figure 5) (clinical DILI in man; structural analogue pairs, Figure 5, ref Chen et al., 2011, Xu et al., 2008 and others): DILI negative | Cmax [1, 15]: 2270 nM | Extent of hepatic metabolism [2]: Extensive | Hanging-drop spheroids (Proctor 2017) 100x [3, 16]: Negative | Chemically defined spheroids (this study) 20x [4, 17]: Negative | hepatotoxicity evaluation in CD-spheroids ([4]; PHH spheroids, 1×, 5×, 20× cmax, 14 days repeated exposure, ATP): did not result in a significant reduction of hepatocyte viability

Cn1cnc([N+](=O)[O-])c1Sc1ncnc2nc[nH]c12 [Azathioprine]
Chemically defined spheroids (this study) 20x [5]: Positive | viability at 14 days, 1 × cmax (in vitro): < 10% | Classified as (clinical DILI in man; in vivo): POS | Clinical DILI class (panel heading of Figure 4) (clinical DILI in man; in vivo): High DILI concern | DILI in vivo (clinical DILI in man; in vivo): POS | FDA (0-8) (clinical DILI in man; in vivo): 5 | FDA (Severity) (clinical DILI in man; in vivo): less DILI concern | Guo et al. (2005) (clinical DILI in man; in vivo): 3 | O'Brien et al. (2003) (clinical DILI in man; in vivo): Moderately | Sakatis et al. (2012) (clinical DILI in man; in vivo): Hepatotoxic | Suzuki et al. (2010) (clinical DILI in man; in vivo): 1 | Type of DILI (clinical DILI in man; in vivo): Cholestatic injury or Mixed hepatitis | Xu et al. (2008) (clinical DILI in man; in vivo): Positive | Cmax [1, 15]: 7210 nM | Extent of hepatic metabolism [2]: Extensive | 2Dsw (Xu 2008) 100x (PHH 2D sandwich cultures; [18]): Positive | Hanging-drop spheroids (Proctor 2017) 100x [3, 16]: Positive

CC(CCc1ccc(O)cc1)NCCc1ccc(O)c(O)c1 (centres unmarked) [Dobutamine]
FDA (Severity) (clinical DILI in man; [9]): no DILI concern | FDA (0-8) (clinical DILI in man; [10]): 0 | DILI in vivo (clinical DILI in man; [11]): NEG | Classified as (clinical DILI in man; [12]): NEG | DILI in vivo (clinical DILI in man; [13]): NEG | Xu et al. (2008) (clinical DILI in man; [19]): Negative | Type of DILI (clinical DILI in man; [14]): Non-hepatotoxic | Cmax [1, 15]: 1340 nM | Extent of hepatic metabolism [2]: Extensive | 2Dsw (Xu 2008) 100x (PHH 2D sandwich cultures; [18]): Negative | Chemically defined spheroids (this study) 20x [4, 17]: Negative

CC(=O)N1CCN(c2ccc(OCC3COC(Cn4ccnc4)(c4ccc(Cl)cc4Cl)O3)cc2)CC1 (centres unmarked) [Ketoconazole]
Chemically defined spheroids (this study) 20x [5]: Positive | viability at 14 days, 1 × cmax (in vitro): < 10% | Classified as (clinical DILI in man; in vivo): POS | Clinical DILI class (panel heading of Figure 4) (clinical DILI in man; in vivo): Severe DILI | DILI in vivo (clinical DILI in man; in vivo): POS | FDA (0-8) (clinical DILI in man; in vivo): 8 | FDA (Severity) (clinical DILI in man; in vivo): most DILI concern | Guo et al. (2005) (clinical DILI in man; in vivo): 3 | O'Brien et al. (2003) (clinical DILI in man; in vivo): Severely | Sakatis et al. (2012) (clinical DILI in man; in vivo): Hepatotoxic | Suzuki et al. (2010) (clinical DILI in man; in vivo): 2 | Type of DILI (clinical DILI in man; in vivo): Hepatocellular injury or Cholestatic injury | Extent of hepatic metabolism [2]: Extensive | Hanging-drop spheroids (Proctor 2017) 100x [3, 16]: Positive

CC(CCc1ccccc1)NCC(O)c1ccc(O)c(C(N)=O)c1 (centres unmarked) [Labetalol]
Chemically defined spheroids (this study) 20x [5]: Negative | hepatotoxicity evaluation in CD-spheroids [5]: predicted to be DILI negative | viability at 14 days, 20 × cmax (in vitro): > 100% | Classified as (clinical DILI in man; in vivo): POS | Clinical DILI class (panel heading of Figure 4) (clinical DILI in man; in vivo): Severe DILI | DILI in vivo (clinical DILI in man; in vivo): POS | FDA (0-8) (clinical DILI in man; in vivo): 8 | FDA (Severity) (clinical DILI in man; in vivo): most DILI concern | O'Brien et al. (2003) (clinical DILI in man; in vivo): Severely | Sakatis et al. (2012) (clinical DILI in man; in vivo): Hepatotoxic | Suzuki et al. (2010) (clinical DILI in man; in vivo): 3 | Type of DILI (clinical DILI in man; in vivo): Hepatocellular injury | Xu et al. (2008) (clinical DILI in man; in vivo): Positive | Cmax [1, 15]: 2680 nM | Extent of hepatic metabolism [2]: Extensive | hepatotoxicity detection in 2D sandwich cultures of PHH (PHH 2D sandwich cultures; 100× cmax, 24 h, high content imaging, ref Xu et al., 2008): flagged as hepatotoxic | 2Dsw (Xu 2008) 100x (PHH 2D sandwich cultures; [18]): Positive | reactive oxygen species levels in 2D sandwich cultures of PHH (PHH 2D sandwich cultures; ref Xu et al., 2008): only slight increases in reactive oxygen species levels

CC(COc1ccccc1)N(CCCl)Cc1ccccc1 (centres unmarked) [Phenoxybenzamine]
Classified as (clinical DILI in man; in vivo): NEG | Clinical DILI class (panel heading of Figure 4) (clinical DILI in man; in vivo): DILI negative | DILI in vivo (clinical DILI in man; in vivo): NEG | FDA (0-8) (clinical DILI in man; in vivo): 0 | FDA (Severity) (clinical DILI in man; in vivo): no DILI concern | Sakatis et al. (2012) (clinical DILI in man; in vivo): non-hepatotixic | Type of DILI (clinical DILI in man; in vivo): Non-hepatotoxic | Xu et al. (2008) (clinical DILI in man; in vivo): Negative | Cmax ([1]; human, in vivo): 180 nM | 2Dsw (Xu 2008) 100x (PHH 2D sandwich cultures): Negative | Hanging-drop spheroids (Proctor 2017) 100x [3]: Negative | Chemically defined spheroids (this study) 20x [4, 17]: Negative

CC(CN1c2ccccc2Sc2ccccc21)N(C)C (centres unmarked) [Promethazine]
hepatotoxicity evaluation in spheroids [6]: indicated toxicity | Chemically defined spheroids (this study) 20x [5]: Negative | Guo et al. (2005) (clinical DILI in man; [20]): 3 | FDA (0-8) (clinical DILI in man; [10]): 5 | DILI in vivo (clinical DILI in man; [11]): NEG | Classified as (clinical DILI in man; [12]): NEG | DILI in vivo (clinical DILI in man; [13]): NEG | Xu et al. (2008) (clinical DILI in man; [19]): Negative | Type of DILI (clinical DILI in man; [14]): Non-hepatotoxic | Cmax [1, 15]: 60 nM | Extent of hepatic metabolism [2]: Extensive | 2Dsw (Xu 2008) 100x (PHH 2D sandwich cultures; [18]): Negative

O=C(c1ccc(OCCN2CCCCC2)cc1)c1c(-c2ccc(O)cc2)sc2cc(O)ccc12 [Raloxifene]
hepatotoxicity evaluation in spheroids [7]: incorrectly flagged as hepatotoxic | hepatotoxicity evaluation in spheroids [8]: mild but significant toxicity | Chemically defined spheroids (this study) 20x [5]: Negative | Classified as (clinical DILI in man; in vivo): NEG | Clinical DILI class (panel heading of Figure 4) (clinical DILI in man; in vivo): DILI negative | DILI in vivo (clinical DILI in man; in vivo): NEG | FDA (0-8) (clinical DILI in man; in vivo): 0 | Sakatis et al. (2012) (clinical DILI in man; in vivo): non-hepatotixic | Type of DILI (clinical DILI in man; in vivo): Non-hepatotoxic | Xu et al. (2008) (clinical DILI in man; in vivo): Negative | Cmax [1, 15]: 1 nM | 2Dsw (Xu 2008) 100x (PHH 2D sandwich cultures; [18]): Negative

Nc1c2c(nc3ccccc13)CCCC2 [Tacrine]
Chemically defined spheroids (this study) 20x [5]: Negative | viability at 14 days, 20 × cmax (in vitro): > 100% | Classified as (clinical DILI in man; in vivo): POS | Clinical DILI class (panel heading of Figure 4) (clinical DILI in man; in vivo): High DILI concern | DILI in vivo (clinical DILI in man; in vivo): POS | Type of DILI (clinical DILI in man; in vivo): Hepatocellular injury | Cmax ([1]; human, in vivo): 70 nM | 2Dsw (Xu 2008) 100x (PHH 2D sandwich cultures): Negative | Hanging-drop spheroids (Proctor 2017) 100x [3]: Negative

Cn1nnc2c(C(N)=O)ncn2c1=O [Temozolomide]
Guo et al. (2005) (clinical DILI in man; [20]): 1 | FDA (0-8) (clinical DILI in man; [10]): 4 | DILI in vivo (clinical DILI in man; [11]): NEG | Classified as (clinical DILI in man; [12]): NEG | DILI in vivo (clinical DILI in man; [13]): NEG | Xu et al. (2008) (clinical DILI in man; [19]): Negative | Type of DILI (clinical DILI in man; [14]): Non-hepatotoxic | Cmax [1, 15]: 26800 nM | Extent of hepatic metabolism [2]: Minimal | 2Dsw (Xu 2008) 100x (PHH 2D sandwich cultures; [18]): Negative | Chemically defined spheroids (this study) 20x [4, 17]: Negative

Cc1ccc(C(=O)c2cc(O)c(O)c([N+](=O)[O-])c2)cc1 [Tolcapone]
Chemically defined spheroids (this study) 20x [5]: Positive | viability at 14 days, 1 × cmax (in vitro): < 10% | Classified as (clinical DILI in man; in vivo): POS | Clinical DILI class (panel heading of Figure 4) (clinical DILI in man; in vivo): Severe DILI | DILI in vivo (clinical DILI in man; in vivo): POS | FDA (0-8) (clinical DILI in man; in vivo): 8 | FDA (Severity) (clinical DILI in man; in vivo): most DILI concern | Guo et al. (2005) (clinical DILI in man; in vivo): 3 | Suzuki et al. (2010) (clinical DILI in man; in vivo): 3 | Type of DILI (clinical DILI in man; in vivo): Hepatocellular injury or Mixed hepatitis | Cmax [1, 15]: 47600 nM | Extent of hepatic metabolism [2]: Extensive | Hanging-drop spheroids (Proctor 2017) 100x [3, 16]: Positive

Aflatoxin B1
Classified as (clinical DILI in man; in vivo): POS | DILI in vivo (clinical DILI in man; in vivo): POS | Type of DILI (clinical DILI in man; in vivo): Hepatocellular injury | Cmax ([1]; human, in vivo): 30 nM | Chemically defined spheroids (this study) 20x [4]: Positive
